Source: patent US11872230B2, “Method of treating a methionine-dependent cancer” (Agency for Science, Technology and Research, priority 2018, dated 2024)

Test system: lung patient-derived xenograft (PDX) cells A139, A233
Assay: Patient-derived lung tumor xenografts (PDX) in NSG mice
Format: in vivo
Conditions: two PDX lines, FIDAS5 40 mg/kg for three days after implantation, six weeks
From the text: 5×10^5 single cells were mixed in a 1:1 mixture of serum free DMEM/F12 and Matrigel (BD) and injected subcutaneously into the flanks of 4-6 week old male and female NOD.Cg-Prkdc^scid Il2rg^tm1wjl SzJ (Jackson Laboratories). About 6 weeks later, or when tumor sizes exceed 2 cm in length, mice were sacrificed and tumors harvested for analysis. All animal experiments were approved by the Agency for Science Technology and Research Singapore—Biological Resource Centre. Mice were randomized by sex.
Since FIDAS5 appeared to more specifically disrupt the methionine cycle and inhibit cellular methylation activities compared to D9, it was sought to test whether its systemic delivery could impact the tumorigenic potential of TS cells. These highly tumorigenic cells were first subcutaneously implanted into NSG mice and FIDAS5 (40 mg/kg) or corn oil carrier was immediately administered via intraperitoneal injection for three consecutive days. After 6 weeks, mice transiently treated with FIDAS5 produced tumors that were much smaller than carrier-treated controls. […] To exclude the possibility of general cytotoxicity associated with the inhibitor on TS cells, TS cell-implanted NSG mice were treated with cisplatin (4 mg/kg), a frontline chemotherapeutic agent that broadly target bulk cancer cells in NSCLC tumors, in the same manner (FIG. 5i). […]

With CNc1ccc(/C=C/c2c(F)cccc2Cl)cc1 [FIDAS5] the “xenograft tumors smaller relative to sham-treated mice” value was “at least 6 fold”.
